Reference: ChEMBL document CHEMBL4840321, “Limonoids with Diverse Oxidation Patterns of C-12 Indicating a Complete Ring C-seco Biogenetic Pathway from Munronia unifoliolata” (J Nat Prod, 2021)
The source made the active and inactive calls. The rule behind the calls is not given here.

Columns and labels:
RAW264.7 = experiment: Inhibition of NO production in LPS-stimulated mouse RAW264.7 cells; assay type: functional, cell-based
[1] = Cytotoxicity against human MCF7-DOX cells measured after 48 hrs by MTT assay; assay type: cell-based
[2] = Anti-MDR activity in human MCF7-DOX cells assessed as reversal of cell resistance to doxorubicin by measuring reversal fold at 10 uM measured after 48 hrs by MTT assay; assay type: functional
[3] = Anti-MDR activity in human MCF7-DOX cells assessed as reversal of cell resistance to doxorubicin by measuring reversal fold at 30 uM measured after 48 hrs by MTT assay; assay type: functional

SMILES	inhibition (RAW264.7)	Activity [1]	fold change (FC) [2]	fold change (FC) [3]
C/C=C(\C)C(=O)O[C@H]1C[C@@H](OC(C)=O)[C@@]2(C)CO[C@H]3[C@@H](O)[C@@]4(C)C5=C(C)[C@H](C6=CCOC6=O)C[C@@H]5O[C@@H](OCC)C[C@@H]4[C@]1(C)[C@@H]32	inactive	Non-Toxic	–	–
CC(=O)O[C@@H]1C[C@H](OC(=O)c2ccccc2)[C@@]2(C)[C@H]3[C@@H](OC[C@]13C)[C@@H](O)[C@@]1(C)C3=C(C)[C@H](c4ccoc4)C[C@@H]3OCC[C@@H]12	inactive	Non-Toxic	–	–
C/C=C(\C)C(=O)O[C@H]1C[C@@H](OC(C)=O)[C@@]2(C(=O)OC)CO[C@H]3[C@H]4O[C@]5(C)[C@H]6C[C@H](O[C@@H]7OC=C[C@@]76O)[C@]5(O)[C@@]4(C)[C@H](C(=O)CO)[C@]1(C)[C@@H]32	inactive	Non-Toxic	–	–
C/C=C(\C)C(=O)O[C@H]1C[C@@H](OC(C)=O)[C@@]2(C)CO[C@H]3[C@@H](O)[C@@]4(C)C5=C(C)[C@H](c6ccoc6)C[C@@H]5OCC[C@@H]4[C@]1(C)[C@@H]32	inactive	Non-Toxic	2.7	5.2
C/C=C(\C)C(=O)O[C@H]1C[C@@H](OC(C)=O)[C@@]2(C)CO[C@H]3[C@H]4O[C@]5(C)[C@H]6C[C@H](O[C@@H]7OC=C[C@@]76O)[C@]5(O)[C@@]4(C)[C@H](C(=O)CO)[C@]1(C)[C@@H]32	inactive	Non-Toxic	–	–
CC(=O)O[C@H]1C[C@@H](OC(C)=O)[C@@]2(C)CO[C@H]3[C@@H](O)[C@@]4(C)C5=C(C)[C@H](c6ccoc6)C[C@@H]5OCC[C@@H]4[C@]1(C)[C@@H]32	inactive	Non-Toxic	–	–
C/C=C(\C)C(=O)O[C@H]1C[C@@H](OC(C)=O)[C@@]2(C)CO[C@H]3[C@@H](O)[C@@]4(C)C5=C(C)[C@H](C6=CCOC6=O)C[C@@H]5O[C@@H](OC)C[C@@H]4[C@]1(C)[C@@H]32	inactive	Non-Toxic	–	–
CO[C@H]1C[C@H]2[C@](C)(C3=C(C)[C@H](c4ccoc4)C[C@@H]3O1)[C@H](O)[C@@H]1OC[C@]3(C)[C@H](OC(C)=O)C[C@H](OC(=O)c4ccccc4)[C@@]2(C)[C@@H]13	inactive	Non-Toxic	–	–
C/C=C(\C)C(=O)O[C@H]1C[C@@H](OC(C)=O)[C@@]2(C)CO[C@H]3[C@@H](O)[C@@]4(C)C5=C(C)[C@H](c6ccoc6)C[C@@H]5O[C@H](OC)C[C@@H]4[C@]1(C)[C@@H]32	inactive	Non-Toxic	3.4	4.5
C/C=C(\C)C(=O)O[C@H]1C[C@@H](OC(C)=O)[C@@]2(C)CO[C@H]3[C@@H](O)[C@@]4(C)C5=C(C)[C@H](c6ccoc6)C[C@@H]5O[C@@H](OC)C[C@@H]4[C@]1(C)[C@@H]32	inactive	Non-Toxic	–	–
C/C=C(\C)C(=O)O[C@H]1C[C@@H](OC(C)=O)[C@@]2(C)CO[C@H]3[C@@H](O)[C@@](C)(C4=C(C)[C@H](c5ccoc5)CC4=O)[C@H](C(=O)CO)[C@]1(C)[C@@H]32	inactive	Non-Toxic	–	–
CC(=O)O[C@H]1C[C@@H](OC(C)=O)[C@@]2(C)CO[C@H]3[C@@H](O)[C@@]4(C)C5=CC[C@@H](c6ccoc6)[C@]5(C)OCC[C@@H]4[C@]1(C)[C@@H]32	inactive	Non-Toxic	–	–
COc1ccc(CCN(C)CCCC(C#N)(c2ccc(OC)c(OC)c2)C(C)C)cc1OC (stereo not drawn) [VERAPAMIL]	–	–	9.2	–
C/C=C(\C)C(=O)O[C@@H]1C[C@H](OC(C)=O)[C@]23CO[C@H](CO)[C@H]2[C@](C)([C@]24O[C@@]2(C)[C@H]2C[C@@H]4O[C@@H]4O[C@H](OC)C[C@]42O)[C@H](O)[C@@H]2OC[C@@]1(C(=O)OC)[C@H]23	inactive	Non-Toxic	–	–
C/C=C(\C)C(=O)O[C@@H]1C[C@H](OC(C)=O)[C@]23CO[C@H](CO)[C@H]2[C@](C)([C@]24O[C@@]2(C)[C@H]2C[C@@H]4O[C@@H]4O[C@H](OCC)C[C@@]42O)[C@H](O)[C@@H]2OC[C@@]1(C(=O)OC)[C@H]23	inactive	Non-Toxic	–	–
C/C=C(\C)C(=O)O[C@H]1C[C@@H](OC(C)=O)[C@@]2(C)CO[C@H]3[C@@H](O)[C@@]4(C)C5=C(C)[C@H](c6ccoc6)C[C@@H]5O[C@@H](O)C[C@@H]4[C@]1(C)[C@@H]32	inactive	Non-Toxic	–	–
C/C=C(\C)C(=O)O[C@H]1C[C@@H](OC(C)=O)[C@@]2(C)CO[C@H]3[C@@H](O)[C@]4(C)[C@H](C[C@@H]5O[C@H]6CC(c7ccoc7)=C(C)[C@@]64O5)[C@]1(C)[C@@H]32	inactive	Non-Toxic	–	–
C/C=C(\C)C(=O)O[C@@H]1C[C@H](OC(C)=O)[C@]23CO[C@H](CO)[C@H]2[C@](C)([C@]24O[C@@]2(C)[C@H]2C[C@@H]4O[C@@H]4O[C@H](OC)C[C@@]42O)[C@H](O)[C@@H]2OC[C@@]1(C(=O)OC)[C@H]23	inactive	Non-Toxic	–	–
C/C=C(\C)C(=O)O[C@H]1C[C@@H](OC(C)=O)[C@@]2(C)CO[C@H]3[C@@H](O)[C@@]4(C)C5=C(C)[C@H](C6=CCOC6=O)C[C@@H]5OCC[C@@H]4[C@]1(C)[C@@H]32	inactive	Non-Toxic	–	–
C/C=C(\C)C(=O)O[C@H]1C[C@@H](OC(C)=O)[C@@]2(C)CO[C@H]3[C@@H](O)[C@@]4(C)C5=C(C)[C@H](c6ccoc6)C[C@@H]5O[C@@H](OCC)C[C@@H]4[C@]1(C)[C@@H]32	inactive	Non-Toxic	–	–
CC(=O)O[C@H]1C[C@@H](OC(C)=O)[C@@]2(C)CO[C@H]3[C@@H](O)[C@@]4(C)C5=CC[C@@H](c6ccoc6)[C@]5(C)CC[C@@H]4[C@]1(C)[C@@H]32 [DIACETYLVILASININ]	inactive	Non-Toxic	7.8	18.3
C/C=C(\C)C(=O)O[C@H]1C[C@@H](OC(C)=O)[C@@]2(C)CO[C@H]3[C@H]4O[C@]5(C)[C@H]6C[C@H](O[C@@H]7O[C@@H](OC)C[C@@]76O)[C@]5(O)[C@@]4(C)[C@H](C(=O)CO)[C@]1(C)[C@@H]32	inactive	Non-Toxic	–	–
CC(=O)OCC[C@H]1[C@]2(C)C3=C(C)[C@H](c4ccoc4)C[C@H]3O[C@@H]2[C@@H]2OC[C@]3(C)[C@H](OC(C)=O)C[C@H](OC(C)=O)[C@@]1(C)[C@@H]23	inactive	Non-Toxic	–	–
C/C=C(\C)C(=O)O[C@H]1C[C@@H](OC(C)=O)[C@@]2(C)CO[C@H]3[C@@H](O)[C@@]4(C)C5=CC[C@@H](c6ccoc6)[C@]5(C)OCC[C@@H]4[C@]1(C)[C@@H]32	inactive	Non-Toxic	–	–
